According to patent US20080119530A1, “Method for treatment and prevention of ultraviolet light induced skin pathologies” (priority 2006, published 2008):

Columns and labels:
[1] = test system: EGFR; test: UV-induced phosphorylation of EGFR; format: cell-based, mouse
Text: (§1) For some experiments, the epidermis was separated from the skin by the heat shock method before homogenization. Keratinocytes were lysed in the same buffer. Membranes were immunoblotted with antibodies recognizing Erbb2, phospho-Erbb2 (Tyr^1248), EGFR, phospho-EGFR (Tyr^992), phospho-EGFR (Tyr^1173), phosphotyrosine, and Tall (Calbiochem, San Diego, Calif.). Binding of horseradish peroxidase-conjugated secondary antibodies (Cell Signaling, Beverly, Mass.) was visualized using chemiluminescent reagents (Pierce, Rockford, Ill.) and autoradiography. Densitometry was performed using IDScan software (Scanalytics, Fairfax, Va.).
(§2) Several methods were developed to regulate Erbb2 expression and activity both in vitro and in vivo.

[2] = test system: skin; test: TUNEL analysis of apoptotic basal cells in UV-exposed skin; design: species or system mouse; conditions: 24 h after UV, in vivo
Procedure: Microscopy. Hematoxylin and eosin staining was performed on paraffin-embedded sections following standard protocols. Following antigen retrieval, paraffin-embedded sections were incubated with antibodies to keratin 1, keratin 6, filaggrin (all from Covance, Princeton, N.J.), or […] (R&D Systems, Minneapolis, Minn.), Alexa Fluor 488-conjugated secondary antibody (Molecular Probes), and 4′,6-diamidino-2-phenylindole (DAPI; Vector Laboratories, Burlingame, Calif.). Apoptotic cells were identified using terminal deoxynucleotidyl transferase-mediated dUTP nick end labeling (TUNEL; Promega, Madison, Wis.).
Therefore, the effect of inhibition of Erbb2 on apoptotic cell death was examined in vivo by TUNEL. The percentage of TUNEL-positive basal cells peaked at 18% in vehicle-treated skin at 24 h after UV.
It has been discovered that Erbb2 modulates the expression of genes important in both proliferation and apoptosis following UV exposure in vivo (Example 9). Accordingly, the influence of Erbb2 on both apoptosis and cell proliferation was assessed in order to determine the mechanisms of Erbb2's effect on hyperplasia in the skin after UV irradiation. Erbb2 suppresses UV-induced apoptosis in vitro, although the effect was slight (32). […]

[3] = test system: platelet-derived growth factor receptor kinase
[4] = biological target: T1, Erbb2 (Mus musculus, UniProt P70424); test: UV-induced activation (phosphorylation) of Erbb2; format: cell-based
T1 construct: endogenous in cells; host or cells: primary newborn mouse keratinocytes; also mouse epidermis/skin extracts
Text: as §1, §2

[5] = test system: keratinocytes; test: Apoptosis in keratinocytes (ssDNA Apoptosis ELISA); format: cell-based, mouse
Text: (§3) Cell culture. […] Keratinocytes were transfected with Erbb2-targeted siRNA (32), Stealth RNAi Negative Control LO GC (Invitrogen, Carlsbad, Calif.), Cy3-conjugated Label IT RNAi Delivery Control (Mirus, Madison, Wis.) or sham transfection with TransIT-siQUEST Transfection Reagent (Mirus, Madison, Wis.). Plasmids with Cdc25a (Hassepass et al. 2003a) and EGFP (enhanced green fluorescent protein) cDNA were cotransfected with Lipofectamine Transfection Reagent (Invitrogen, Carlsbad, Calif.). Transfection efficiency was quantified by determining the proportion of the cells that incorporated the fluorescent Cy3-conjugated siRNA or GFP one day post-transfection. Keratinocytes homozygous for the Erbb2 loxP mutation were infected with Cre recombinase-expressing or empty adenoviral vectors in polybrene (Sigma).
Proliferation and apoptosis assays. Proliferation, survival and apoptosis were quantified in three replicate experiments. BrdU uptake was measured by a chemiluminescenit BrdU Cell Proliferation ELISA (Roche, Germany). Survival was quantified using 4-methylumbelliferyl heptanoate (MUH, Sigma, St. Louis, Mo.) degradation product fluorescence (ex: 360 nm, em:465 nm) as a marker for cell viability based on the method by Dotsika et al.^27 Cells were incubated in 100 μg/ml MUH in PBS for 30 minutes at 37° C. MUH fluorescence from wells lacking cells was subtracted from all samples. Apoptosis was measured using an ssDNA Apoptosis ELISA kit (Chemicon, Temecula, Calif.).
To investigate the role of Erbb2 in apoptosis following UV exposure, keratinocyte survival was measured in AG825-treated or Erbb2 siRNA-transfected cells and controls. As expected, apoptosis increased in all groups after UV exposure, as detected by ssDNA quantification.

[6] = test system: Erbb2; test: Erbb2 expression in keratinocytes (immunoblot); format: cell-based, mouse; conditions: cultured keratinocytes, AG825
Text: as §1
as §3, with “Keratinocytes homozygous for the Erbb2 loxP mutation were infected with Cre recombinase-expressing or empty adenoviral vectors in polybrene (Sigma).” left out

T1 sequence (P70424 23-1256): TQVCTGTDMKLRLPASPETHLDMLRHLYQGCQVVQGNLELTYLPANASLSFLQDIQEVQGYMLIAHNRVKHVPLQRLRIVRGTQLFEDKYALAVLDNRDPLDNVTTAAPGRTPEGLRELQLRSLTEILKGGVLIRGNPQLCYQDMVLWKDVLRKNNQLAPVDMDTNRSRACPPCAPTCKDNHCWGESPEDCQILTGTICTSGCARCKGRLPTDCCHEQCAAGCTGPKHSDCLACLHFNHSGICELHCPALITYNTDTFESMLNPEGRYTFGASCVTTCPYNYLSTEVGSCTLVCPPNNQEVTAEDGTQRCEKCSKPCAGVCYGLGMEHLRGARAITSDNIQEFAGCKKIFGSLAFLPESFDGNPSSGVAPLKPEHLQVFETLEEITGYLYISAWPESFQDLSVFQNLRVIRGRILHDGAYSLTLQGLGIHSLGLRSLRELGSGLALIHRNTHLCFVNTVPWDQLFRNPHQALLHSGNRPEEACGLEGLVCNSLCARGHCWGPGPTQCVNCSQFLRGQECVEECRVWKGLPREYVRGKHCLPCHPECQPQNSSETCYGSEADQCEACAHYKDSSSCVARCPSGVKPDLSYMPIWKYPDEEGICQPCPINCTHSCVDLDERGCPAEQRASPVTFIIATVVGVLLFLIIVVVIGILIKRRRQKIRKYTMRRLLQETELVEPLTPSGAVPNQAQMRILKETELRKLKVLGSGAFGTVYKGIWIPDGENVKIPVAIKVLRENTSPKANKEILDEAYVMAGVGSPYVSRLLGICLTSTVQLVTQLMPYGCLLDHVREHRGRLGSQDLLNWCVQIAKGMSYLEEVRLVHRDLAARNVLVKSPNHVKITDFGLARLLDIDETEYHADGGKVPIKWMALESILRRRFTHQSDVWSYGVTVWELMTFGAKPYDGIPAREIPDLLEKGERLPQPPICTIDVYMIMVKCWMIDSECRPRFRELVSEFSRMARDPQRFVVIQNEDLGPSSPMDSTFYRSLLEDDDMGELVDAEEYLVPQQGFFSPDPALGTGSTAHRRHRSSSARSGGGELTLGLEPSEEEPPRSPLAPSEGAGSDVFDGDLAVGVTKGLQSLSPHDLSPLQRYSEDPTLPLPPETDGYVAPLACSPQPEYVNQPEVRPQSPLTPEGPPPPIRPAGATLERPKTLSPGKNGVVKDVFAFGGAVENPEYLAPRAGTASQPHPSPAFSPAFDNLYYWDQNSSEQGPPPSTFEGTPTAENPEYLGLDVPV

SMILES: COc1cc(/C=C(\C#N)C(N)=O)cc(CSc2nc3ccccc3s2)c1O [AG825]
- EGFR phosphorylation at Tyr1173 after UV [1]: did not block
- UV-induced phosphorylation of EGFR-Tyr992 [1]: blocked
- apoptotic cell death (TUNEL-positive basal cells) [2]: did not increase
- fold higher IC50 for platelet-derived growth factor receptor kinase than for Erbb2 [3]: more than 100 fold
- duration of the inhibition of Erbb2 [4]: less than 24 h
- activation of Erbb2 by UV ([4]; both in vivo and in vitro): blocked
- UV-induced phosphorylation of Erbb2 at Tyr1248 ([4]; cultured keratinocytes): inhibited
- ssDNA (apoptosis), compared with DMSO-treated keratinocytes ([5]; between 6 and 12 h post-UV): similarly increased
- apoptosis compared to DMSO-treated cells ([5]; by 24 h after UV exposure): significantly increased
- apoptosis after UV in vitro ([5]; extent varies with the assay): small increase
- expression levels of Erbb2 [6]: without altering
